The source of these data is ChEMBL document CHEMBL1201862, “PubChem BioAssay data set” (2004).

Each structure is given as a SMILES string.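 These data come from cells grown in 96-well plates and exposed to compound for 48 hours at five concentrations. GI50 marks 50% less growth.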 Active and inactive are the calls of the source. No stated cut-off is given here; in the data, active = GI50 up to about 1.1 µM and inactive = higher. Square brackets hold non-standard residues; d marks the D form. Peptide text beside a SMILES is read from it. * marks the point of attachment. Bn2Val = CC(C)[C@@H](C(=O)*)N(Cc1ccccc1)Cc1ccccc1; NH(3,4-diMeO-benzyl) = COc1ccc(CN*)cc1OC; NMeV = CN[C@H](C(=O)O)C(C)C; dNMeA = CN[C@H](C)C(=O)O

Holding throughout (assay): inhibition of tumour cell growth, NCI panel, 48 h
Assay [1] deals with CAKI-1.
For assay [2], the system named is RXF 393.
Assay [3] relates to HT-29.
Assay [4] has as its system Malme-3M.
The subject of assay [5] is SK-OV-3.
The test system of assay [6] is A549.
The subject of assay [7] is EKVX.
Assay [8] relates to ACHN.
The test system of assay [9] is NCI-H23.
The subject of assay [10] is A498.
Assay [11] deals with HCT-15.
The test system of assay [12] is RPMI-8226.
In assay [13] the test system is SF-295.
Assay [14] has as its system TK-10.
The test system of assay [15] is T47D.
Assay [16] relates to M14.
Assay [17] deals with LOX IMVI.
In assay [18] the test system is SK-MEL-2.
Assay [19] relates to SN12C.
The subject of assay [20] is SR.

For the molecule `CC12CCC(C1)C(C)(C)C2OC(=O)c1ccccc1C(=O)O` (stereo not drawn), the GI50 in [1], in [2], in assay [3], in assay [4], in [5] and in [6] was > 100 µM (inactive) each time. Further, the GI50 in [7] is > 100 µM (inactive); in assay [8], > 100 µM (inactive); in [9], > 100 µM (inactive); in [10] it was > 100 µM (inactive); in [11] it was over 100 µM; in assay [12], > 100 µM (inactive). The GI50 in assay [13], in assay [14], in [15], in assay [16], in assay [17] and in assay [18] was > 100 µM (inactive) throughout. Also, the GI50 in assay [19] was > 100 µM (inactive).

Regarding `COc1cc(/C=C2\N=C(c3ccccc3)N(c3nc4ccc(Sc5ccccc5)cc4[nH]3)C2=O)cc(OC)c1OC`, the GI50 in [1] is 31.1 µM (inactive); in [2], 22.1 µM (inactive); in [3], 21.4 µM (inactive); in [4], 16.9 µM (inactive); in [5], 30.1 µM (inactive); in assay [6], 34.3 µM (inactive). In addition, the GI50 was 38.7 µM (inactive) in assay [7]; 22.9 µM (inactive) in assay [8]; 27 µM (inactive) in assay [9]; 22 µM (inactive) in [10]; 21.1 µM in [11]; 20.1 µM (inactive) in assay [12]. Moreover, the GI50 is 23.6 µM (inactive) in assay [13]; 24.6 µM (inactive) in [14]; 17.9 µM (inactive) in assay [15]; 19.3 µM (inactive) in assay [16]; 23.3 µM (inactive) in assay [17]; 15.4 µM (inactive) in assay [18]. For the same molecule, the GI50 in assay [19] was 27.9 µM (inactive).

As for `COc1ccc(C2CC(=O)Oc3ccccc3O2)cc1` (stereo not drawn), the GI50 in assay [20] is 52.7 µM (inactive); in assay [2], > 100 µM (inactive); in assay [3], > 100 µM (inactive); in assay [5] it was > 100 µM (inactive); in assay [6], > 100 µM (inactive); in assay [7], > 100 µM (inactive). The GI50 in assay [8] is > 100 µM (inactive); in assay [9], > 100 µM (inactive); in assay [11], over 100 µM; in assay [12], > 100 µM (inactive); in assay [13], > 100 µM (inactive); in assay [14] it was > 100 µM (inactive). Further, the GI50 in assay [15] and in assay [19] was > 100 µM (inactive) throughout.

`O=C1/C(=C\c2cccc(Oc3ccccc3)c2)SC(c2ccccc2)N1c1cccc(Cl)c1` (stereo not drawn): the GI50 in assay [1] was > 100 µM (inactive); in assay [2] it was 64.1 µM (inactive); in assay [3] it was > 100 µM (inactive); in [4] it was > 100 µM (inactive); in assay [5], > 100 µM (inactive); in [6], > 100 µM (inactive). In addition, the GI50 was > 100 µM (inactive) in [7]; > 100 µM (inactive) in [8]; > 100 µM (inactive) in assay [9]; > 100 µM (inactive) in assay [10]; over 100 µM in assay [11]; > 100 µM (inactive) in assay [12]. Further, the GI50 in assay [13], in assay [14], in [15], in assay [16], in assay [17] and in assay [18] was > 100 µM (inactive) in each case. Besides, the GI50 in assay [19] is > 100 µM (inactive).

As for `CCc1cc(O)c(Cl)c(C)c1Cl`, the GI50 in assay [1] was 17.3 µM (inactive); in [2], 14.1 µM (inactive); in assay [3], 19.2 µM (inactive); in assay [4], 19.4 µM (inactive); in [5], 18.3 µM (inactive); in assay [6] it was 23.1 µM (inactive). Moreover, the GI50 in [7] was 11.9 µM (inactive); in assay [8] it was 15.7 µM (inactive); in assay [9], 19 µM (inactive); in assay [10], 13 µM (inactive); in [11] it was 17.4 µM; in assay [12] it was 13.8 µM (inactive). Moreover, the GI50 in assay [13] is 20 µM (inactive); in [14], 18.2 µM (inactive); in assay [15] it was 28.7 µM (inactive); in assay [16] it was 18.6 µM (inactive); in assay [17], 15.9 µM (inactive); in [18], 43.3 µM (inactive). The GI50 in [19] is 15.6 µM (inactive).

With `COC(=O)C(CC(C)C)NC(=O)C(NC(=O)c1ccc(-c2ccc(Cl)cc2Cl)o1)C(C)C` (stereo not drawn), the GI50 was 19.2 µM (inactive) in assay [20]; 15.7 µM (inactive) in assay [1]; 14.8 µM (inactive) in assay [2]; 15.3 µM (inactive) in assay [3]; 30.8 µM (inactive) in [5]; 21 µM (inactive) in [6]. For the same molecule, the GI50 was 13.7 µM (inactive) in assay [7]; 20.8 µM (inactive) in [8]; 22.5 µM (inactive) in [9]; 20.7 µM in [11]; 11.6 µM (inactive) in assay [12]; 16.2 µM (inactive) in assay [13]. The GI50 in [14] is 27.4 µM (inactive); in assay [15] it was 15.3 µM (inactive); in assay [16], 24 µM (inactive); in assay [17] it was 15.7 µM (inactive); in assay [18], 21.3 µM (inactive); in [19], 18 µM (inactive).

On to `CN1N=C(c2ccccc2)c2cc(Cl)ccc2N=C1N/N=C/c1ccc(N(C)C)cc1`, for which the GI50 is 49.2 µM (inactive) in assay [20]; > 100 µM (inactive) in assay [1]; > 100 µM (inactive) in assay [2]; > 100 µM (inactive) in assay [3]; > 100 µM (inactive) in assay [5]; > 100 µM (inactive) in assay [6]. For the same molecule, the GI50 in assay [7] is > 100 µM (inactive); in assay [8], > 100 µM (inactive); in assay [9] it was > 100 µM (inactive); in assay [11] it was 87.7 µM; in assay [12], 70.5 µM (inactive); in assay [13] it was > 100 µM (inactive). Besides, the GI50 in [14], in [15], in assay [16] and in [19] was > 100 µM (inactive) in each case.

For the molecule `COc1ccc(CNC(=O)[C@@H](C)N(C)C(=O)[C@@H]2CCCN2C(=O)[C@H](C(C)C)N(C)C(=O)[C@@H](NC(=O)[C@H](C(C)C)N(Cc2ccccc2)Cc2ccccc2)C(C)C)cc1OC` (Bn2Val-V[NMeV]P[dNMeA]-{NH(3,4-diMeO-benzyl)}), the GI50 is 11.4 µM (inactive) in assay [1]; 5.61 µM (inactive) in assay [2]; 5.4 µM (inactive) in assay [3]; 8.67 µM (inactive) in assay [4]; 12.8 µM (inactive) in assay [5]; 5.85 µM (inactive) in assay [6]. The GI50 is 6.24 µM (inactive) in assay [7]; 6.97 µM (inactive) in [8]; 10.5 µM (inactive) in assay [9]; 11.5 µM (inactive) in assay [10]; 7.18 µM in assay [11]; 2.66 µM (inactive) in assay [12]. Further, the GI50 in assay [13] was 6.28 µM (inactive); in assay [14], 11.7 µM (inactive); in assay [15], 7.43 µM (inactive); in assay [16] it was 6.92 µM (inactive); in assay [17] it was 7.76 µM (inactive); in assay [18], 7.4 µM (inactive). Moreover, the GI50 in [19] is 8.13 µM (inactive).
